Source: US6610648B2, “Malodor counteractant compositions” (Givaudan SA, priority 2000, dated 2003)
“And” between values parts separate entries of the source, which are not always exact repeats. Equal entries are not always repeated. Structures can show the parent of a compound that is named as a salt.

Key:
Parameters in all cases: species or system human
[1] = Synthetic axilla malodor on cotton pads, 10-member panel rating of malodor strength; conditions: for Class A + Malodor (strength of the axilla malodor, panel score): 0.4 g ethanolic solution with 10% (wt) test compound on malodor pad, 10-member panel after 3 hours; for Class A + Malodor (strength of the axilla malodor, panel score) / 50% DHF/50% Class A (strength of the axilla malodor, panel score): scale 5 overpowering to 1 not detectable; for 50% DHF/50% Class A (strength of the axilla malodor, panel score): test solution 5% (wt) DHF and 5% (wt) Class A compound, after 3 hours
Experimental: 100 μl of synthetic axilla malodor was placed onto cotton pads. 0.4 g of an ethanolic solution containing 10% (wt) of a test compound identified in Table 1 was placed on each axilla malodor treated cotton pad. Each pad was allowed to dry 15 for minutes, and then evaluated using a 10-member panel after 3 hours. The test cotton pads were randomized, and each panelist was asked to check a box that represented the strength of the axilla malodor using the following scale:
In this example, the MO effect of various mixtures of a Class A MOC compound and a Class B MOC compound (i.e., dihexyl fumarate (“DHF”) as disclosed in Kulka, U.S. Pat. No. 3,074,892) were evaluated using the same test and malodor evaluation procedures as set forth in Example 1. Each test sol ion contained 5% (wt) DHF and 5% (wt) of the Class A compound identified in Table 3. The MOC effect was evaluated as in Example 1.
Various mixtures of OMC (a Class A Compound) and a Class B compound (i.e., various cyclohexyl esters as disclosed in Schleppnik '221) as identified in Table 4 below were made according to the procedure set forth in Example 1. The MOC of each mixture was evaluated using the procedure set forth in Example 1.

[2] = MOC of sweat malodor on fabric swatches; conditions: Table 6
Experimental: The following fabric treatment solutions were prepared:
1. A solution of ethanol and Cremophor (a hydrogenated ethoxylated castor oil marketed by BASF Corp., Mount Olive, N.J.) containing 10% (wt) of dihexyl fumarate (DHF).
2. A solution of ethanol and Cremophor containing 10% (wt) of OMC.
3. A solution of ethanol and Cremophor containing 5% (wt) of DHF+5% (wt) OMC.
Five (5) fabric swatches were prepared, and labeled A-E. Swatch A was designated as the control swatch with no malodor. 100 μl of sweat malodor was placed in the middle of swatches B-E. Swatch B was designated as the control swatch for the malodor. The swatches were allowed to equilibrate with the malodor for 20 minutes. Onto swatches C-E, the following solutions were sprayed:
The malodor intensity on the cotton swatches was evaluated as follows:
The malodor intensity on swatch B (Malodor Control) was identified as a 5 (overpoweringly strong) on the scale of 1-5 set forth below at every time point, and the rest of swatches were evaluated based on that standard.

[3] = Tobacco smoke malodor on cotton fabric, 20-member panel; conditions: 0.4 gram of 5% (wt) OMC in ethanol on smoke-treated cotton fabric; average of 20 panelists; three hours; scale 1-5
Experimental: (§1) The ability of OMC to reduce the malodor intensity of tobacco smoke, onion, and garlic solutions on cotton fabric was determined.
(§2) Cotton cloth pads were evaluated by 20 panelists to determine how well OMC reduced the perceived odor of tobacco smoke, onion, and garlic solutions on cotton fabric.
(§3) The effect of the test solutions on the garlic or onion odors were evaluated by asking a 20-member panel to rate the intensity of the malodor present on the controls and on the treated fabrics using a scale of 1-5 as shown below three hours after the preparation of each sample. The data are average values from the scores by each of the 20 panelists.
Samples were prepared fresh before each evaluation. Clean pieces of fabric were treated with smoke by placing each fabric piece in a smoked filled environment for 10 minutes. Each piece of fabric was sprayed with 0.4 gram of the 5% (wt) OMC in ethanol test solution set forth above in the garlic and onion example. The treated fabric pieces were left to dry for 15 minutes, and then wrapped in foil.
Controls were prepared from a smoke-treated piece of cloth that was not sprayed with a test solution.
The fabric pieces were evaluated in the same way as described above in the onion and garlic example.

[4] = Onion malodor on cotton fabric, 20-member panel; conditions: 0.4 g of 5% OMC in ethanol on cotton pad with 2.5% (wt) onion solution; average of 20 panelists; three hours; scale 1-5
Experimental: as §1, §2
(§4) Samples were prepared fresh before each evaluation. A solution of 2.5% (wt) garlic and a solution of 2.5% (wt) onion were both made using 39C alcohol as the solvent. Briefly, 0.4 g of the garlic and onion solutions were each sprayed onto cotton towel pads (100% cotton, 5×5cm). 0.4 g of a test solution containing 5% OMC in ethanol were then sprayed on the onion and garlic-treated cotton pads. The pads were allowed to dry for 15-20 minutes under a fume hood. Each pad was then placed in a blind coded Petri-dish.
(§5) Controls were prepared from cotton pads, which were treated only with the garlic or onion solution (i.e., no OMC test solution).
as §3

[5] = Garlic malodor on cotton fabric, 20-member panel; conditions: 0.4 g of 5% OMC in ethanol on cotton pad with 2.5% (wt) garlic solution; average of 20 panelists; three hours; scale 1-5
Experimental: as §1, §2, §4, §5, §3

Row | SMILES | Class A + Malodor (strength of the axilla malodor, panel score) [1] | 50% DHF/50% Class A (strength of the axilla malodor, panel score) [1] | further results
1 | CC(C)=CCCC(C)CCOC(=O)/C(C#N)=C/c1ccccc1O (centres unmarked) [GR 85-2661] | 2.9 | 2.4 | –
2 | COC(=O)/C(C#N)=C/c1ccccc1 [GR 85-3427] | 3.0 | 3.3 | –
3 | O=C(/C=C/c1ccccc1)OCCc1ccccc1 [PC, Phenylethylcinnamate] | 2.2 | – | –
4 | CC(C)=CCCC(C)CCOC(=O)/C=C/c1ccccc1O (centres unmarked) [GR 85-2280] | 2.9 | 3.1 | –
5 | CCCCC(C)COC(=O)c1cc2ccccc2oc1=O (centres unmarked) [GR 85-6924] | 2.9 | 2.5 | –
6 | CCCCCCOC(=O)/C=C/C(=O)OCCCCCC [Dihexyl Fumarate, reference compound] | – | – | 10% test (Compound B Alone) malodor score ([1]; 10% Class B compound alone, procedure of Example 1, scale 1-5): 2.6; 5% OMC + 5% Compound B malodor score ([1]; mixture 5% OMC + 5% Class B compound, procedure of Example 1, scale 1-5): 2.3; MOC effect in words, compound alone [2]: had a MOC effect
7 | CCCCC(C)COC(=O)C1=Cc2ccc(OC)cc2CC1 (centres unmarked) [GR 85-6495] | 2.8 | 3.0 | –
8 | C/C(=C\c1ccccc1O)C(=O)OCCC(C)CCc1ccccc1 (centres unmarked) [GR 85-1407] | 3.4 | 3.0 | –
9 | CCCCC(CC)COC(=O)/C=C/c1ccc(OC)cc1 (centres unmarked) [OMC, Octyl methoxy cinnamate] | 2.6 | 2.3 | 10% OMC (Alone) malodor score ([1]; 10% OMC alone, run beside the Compound B of that line, scale 1-5): 3.1 and 2.6 and 3.0; MOC effect in words, mixture of Class A and Class B compound versus alone ([1]; axilla malodor test pads, Tables 3 and 4): acts at least additively with the Class B compounds; MOC effect in words, compound alone [2]: had a MOC effect; Malodor intensity, Smoke [3]: 1.8; Malodor intensity, Onion [4]: 2.7; Malodor intensity, Garlic [5]: 2.6
10 | CCCCC(CC)COC(=O)/C=C/c1ccccc1 (centres unmarked) [GR 85-3429] | 3.3 | 2.8 | –
11 | CC(C)=CCCC(C)CCOC(=O)/C=C/c1ccccc1O[Si](C)(C)C (centres unmarked) [GR 85-3565] | 2.7 | 3.1 | –
12 | COc1ccc(OC)c(/C=C/C(=O)OCCC(C)CCC=C(C)C)c1 (centres unmarked) [GR 85-3260] | 3.5 | 2.9 | –
13 | CCCCCCCCCCOC(=O)/C=C/c1ccccc1 [GR 85 3428] | 2.8 | 3.3 | –
